What is called Ki is a dissociation constant, usually derived from enzyme kinetics or from competition with a known ligand. A high value points to lower affinity.

For this assay, the target named is T1, Vasopressin V1b receptor (Homo sapiens, UniProt P47901).
T1 sequence (P47901 whole entry): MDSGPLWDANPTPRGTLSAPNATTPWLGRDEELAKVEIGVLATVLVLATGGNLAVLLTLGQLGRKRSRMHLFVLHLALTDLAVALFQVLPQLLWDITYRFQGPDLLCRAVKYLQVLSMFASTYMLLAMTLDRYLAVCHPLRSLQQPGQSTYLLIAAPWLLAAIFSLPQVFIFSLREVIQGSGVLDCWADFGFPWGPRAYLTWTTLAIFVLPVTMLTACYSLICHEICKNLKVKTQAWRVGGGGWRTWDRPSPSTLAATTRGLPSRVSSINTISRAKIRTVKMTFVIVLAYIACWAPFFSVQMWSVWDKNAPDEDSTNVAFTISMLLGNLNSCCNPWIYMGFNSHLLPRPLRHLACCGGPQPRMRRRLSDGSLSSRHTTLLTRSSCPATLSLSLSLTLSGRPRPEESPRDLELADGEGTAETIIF
The assay is described as follows: Binding Assay. The following applies: pH 7.4; 25 °C. The method, then: The nonspecific binding was determined with 1 μM AVP (Fluka 94836). All determinations were carried out as duplicate determinations. […] The liquid scintillation measurement took place in a Microbeta TriLux 12 (Wallac).
On to `CCOc1ccc(OC)c(C2(N3CC4(CN(C5CCN(C)CC5)C4)C3)C(=O)N(S(=O)(=O)c3ccc(OC)cc3OC)C3C=CC(C#N)=CC32)c1` (racemic) [US9688678, 2 (+-)-1-(2,4-dimethoxyphenyl)sulfonyl-3-(2-ethoxy-5-methoxy-phenyl)-3-[2-(1-methyl-4-piperidyl)-2,6-diazaspiro[3.3]heptan-6-yl]-2-oxo-indoline-5-carbonitrile], for which the Ki result was “in the range around 55 nM”.

With `CCOc1ccc(OC)c(C2(N3CC4(CN(C5CCN(C)CC5)C4)C3)C(=O)N(S(=O)(=O)c3cccc4cccnc34)C3C=CC(C#N)=CC32)c1` (racemic) [US9688678, 3 (+-)-3-(2-ethoxy-5-methoxy-phenyl)-3-[2-(1-methyl-4-piperidyl)-2,6-diazaspiro[3.3]heptan-6-yl]-2-oxo-1-(8-quinolylsulfonyl)indoline-5-carbonitrile], the Ki result is “in the range around 55 nM”.

Regarding `CCOc1ccc(OC)cc1C1(N2CC3(CN(C4CCN(C)CC4)C3)C2)C(=O)N(S(=O)(=O)c2cc(C#N)ccn2)C2C=CC(C#N)=CC21` (racemic) [US9688678, 14 (+-)-1-(4-cyanophenyl)sulfonyl-3-(2-ethoxy-5-methoxy-phenyl)-3-[2-(1-methyl-4-piperidyl)-2,6-diazaspiro[3.3]heptan-6-yl]-2-oxo-indoline-5-carbonitrile], the Ki result is “in the range around 55 nM”.

For the molecule `CCOc1ccc(OC)cc1C1(N2CC3(CN(C4CCN(C)CC4)C3)C2)C(=O)N(S(=O)(=O)c2cc(F)ccn2)C2C=CC(C#N)=CC21` (racemic) [US9688678, 16 (+-)-3-(2-ethoxy-5-methoxy-phenyl)-1-(4-fluorophenyl)sulfonyl-3-[2-(1-methyl-4-piperidyl)-2,6-diazaspiro[3.3]heptan-6-yl]-2-oxo-indoline-5-carbonitrile], the Ki entry is “in the range around 55 nM”.

Molecule `CCOc1ccc(OC)cc1C1(N2CC3(CN(N4CCN(C)CC4)C3)C2)C(=O)N(S(=O)(=O)c2ccc(OC)cn2)C2C=CC(C#N)=CC21` (racemic) [US9688678, 17 (+-)-3-(2-ethoxy-5-methoxy-phenyl)-1-[(5-methoxy-2-pyridyl)sulfonyl]-3-[2-(4-methylpiperazin-1-yl)-6-azaspiro[3.3]heptan-6-yl]-2-oxo-indoline-5-carbonitrile] had a Ki of less than 1 nM.

In turn, `CCOc1ccc(OC)cc1C1(N2CC3(CN(C4CCN(C(C)C)CC4)C3)C2)C(=O)N(S(=O)(=O)c2ccc(OC)cn2)C2C=CC(C#N)=CC21` (racemic) [US9688678, 19 (+-)-3-(2-ethoxy-5-methoxy-phenyl)-3-[2-(1-isopropyl-4-piperidyl)-2,6-diazaspiro[3.3]heptan-6-yl]-1-[(5-methoxy-2-pyridyl)sulfonyl]-2-oxo-indoline-5-carbonitrile] gave a Ki of less than 1 nM.

Take `COc1ccc(S(=O)(=O)N2C(=O)C(c3cc(OC)ccc3OC)(N3CC4(CN(C5CCN(C)CC5)C4)C3)C3C=C(C#N)C=CC32)nc1` (racemic) [US9688678, 21 (+-)-3-(2,5-dimethoxyphenyl)-1-[(5-methoxy-2-pyridyl)sulfonyl]-3-[2-(1-methyl-4-piperidyl)-2,6-diazaspiro[3.3]heptan-6-yl]-2-oxo-indoline-5-carbonitrile]: the Ki was less than 1 nM.

Molecule `CCOc1ccc(OC)cc1C1(N2CC3(CN(N4CCN(C)CC4)C3)C2)C(=O)N(S(=O)(=O)c2ccc(OC)cn2)C2C=CC(C#N)=CC21` (single isomer, unassigned; (+)) [US9688678, 17B (+)-3-(2-ethoxy-5-methoxy-phenyl)-1-[(5-methoxy-2-pyridyl)sulfonyl]-3-[2-(4-methylpiperazin-1-yl)-6-azaspiro[3.3]heptan-6-yl]-2-oxo-indoline-5-carbonitrile] registered a Ki of less than 1 nM.

As to `COc1ccc(S(=O)(=O)N2C(=O)C(c3cccnc3OC)(N3CC4(CN(C5CCN(C)CC5)C4)C3)C3C=C(C#N)C=CC32)nc1` (stereo not drawn) [US9688678, 9A (+)-3-(2-ethoxy-3-pyridyl)-1-[(5-methoxy-2-pyridyl)sulfonyl]-3-[2-(1-methyl-4-piperidyl)-2,6-diazaspiro[3.3]heptan-6-yl]-2-oxo-indoline-5-carbonitrile], the Ki is less than 1 nM.

On to `CCOc1ccc(OC)c(C2(N3CC4(CN(C5CCN(C6COC6)CC5)C4)C3)C(=O)N(S(=O)(=O)c3ccc(OC)cn3)C3C=CC(C#N)=CC32)c1` (stereo not drawn) [US9688678, 11 (+)-3-(2-ethoxy-5-methoxyphenyl)-1-((5-methoxypyridin-2-yl)sulfonyl)-3-(6-(1-(oxetan-3-yl)piperidin-4-yl)-2,6-diazaspiro[3.3]heptan-2-yl)-2-oxoindoline-5-carbonitrile], for which the Ki was less than 1 nM.

Regarding `CCOc1cnc(OCC)c(C2(N3CC4(CN(C5CCN(C)CC5)C4)C3)C(=O)N(S(=O)(=O)c3cc(OC)ccn3)C3C=CC(C#N)=CC32)c1` (stereo not drawn) [US9688678, 12 (+-)-3-(2-ethoxy-3-pyridyl)-1-(4-methoxyphenyl)sulfonyl-3-[2-(1-methyl-4-piperidyl)-2,6-diazaspiro[3.3]heptan-6-yl]-2-oxo-indoline-5-carbonitrile], the Ki entry is “in the range around 55 nM”.

Regarding `COc1ccc(S(=O)(=O)N2C(=O)C(c3ccccc3OC)(N3CC4(CN(C5CCN(C)CC5)C4)C3)C3C=C(C#N)C=CC32)nc1` (stereo not drawn) [US9688678, 18 (+-)3-(2-methoxyphenyl)-1-[(5-methoxy-2-pyridyl)sulfonyl]-3-[2-(1-methyl-4-piperidyl)-2,6-diazaspiro[3.3]heptan-6-yl]-2-oxo-indoline-5-carbonitrile], the Ki is less than 1 nM.

Molecule `COc1ccc(S(=O)(=O)N2C(=O)C(c3ccccc3OC)(N3CC4(CN(C5CCN(C)CC5)C4)C3)C3C=C(C#N)C=CC32)nc1` (stereo not drawn) [US9688678, 18A (+)-3-(2-methoxyphenyl)-1-[(5-methoxy-2-pyridyl)sulfonyl]-3-[2-(1-methyl-4-piperidyl)-2,6-diazaspiro[3.3]heptan-6-yl]-2-oxo-indoline-5-carbonitrile] displayed a Ki of less than 1 nM.

Turning to `CCOc1ccc(OC)cc1C1(N2CC3(CN(C4CCN(C)CC4)C3)C2)C(=O)N(S(=O)(=O)c2ccc(OC)cn2)C2C=C(C#N)C=CC21` (stereo not drawn) [US9688678, 29 (+-)-3-(2-ethoxy-5-methoxy-phenyl)-1-[(5-methoxy-2-pyridyl)sulfonyl]-3-[2-(1-methyl-4-piperidyl)-2,6-diazaspiro[3.3]heptan-6-yl]-2-oxo-indoline-6-carbonitrile], the Ki result is “in the range around 5.5 nM”.

For `CCOc1ccc(OC)cc1[C@]1(N2CC3(CN(C4CCN(C)CC4)C3)C2)C(=O)N(S(=O)(=O)c2cccc(OC)n2)C2C=CC(C#N)=CC21` (stereo partly drawn) [US9688678, 32 (3S)-3-(2-ethoxy-5-methoxy-phenyl)-1-[(6-methoxy-2-pyridyl)sulfonyl]-3-[2-(1-methyl-4-piperidyl)-2,6-diazaspiro[3.3]heptan-6-yl]-2-oxo-indoline-5-carbonitrile], the Ki result is “in the range around 55 nM”.

Consider `CCOc1ccc(OC)cc1[C@]1(N2CC3(CN(C4CCN(C)CC4)C3)C2)C(=O)N(S(=O)(=O)c2ccc(Cl)cn2)C2C=CC(C#N)=CC21` (stereo partly drawn) [US9688678, 34 (3S)-1-[(5-chloro-2-pyridyl)sulfonyl]-3-(2-ethoxy-5-methoxy-phenyl)-3-[2-(1-methyl-4-piperidyl)-2,6-diazaspiro[3.3]heptan-6-yl]-2-oxo-indoline-5-carbonitrile], for which the Ki is less than 1 nM.

(Values after BindingDB's records for patent US9688678 (Abbvie Deutschland, 2017).)
